# Results reported in patent EP3029024A1, “2-(2-aminophenoxy)-3-chloronaphthalene-1,4-dione compounds having orexin 2 receptor agonist activity” (Ferrer Internacional, S.A., priority 2014, dated 2016).
# Target: T1, OX2 receptor (Homo sapiens, UniProt O43614)
# T1 construct: expressed in transfected cells; host or cells: unnamed cell line stably co-expressing apoaequorin and OX2 receptor, cultured in Ham's F12 with G418 and Zeocin
# T1 sequence (O43614 1-444): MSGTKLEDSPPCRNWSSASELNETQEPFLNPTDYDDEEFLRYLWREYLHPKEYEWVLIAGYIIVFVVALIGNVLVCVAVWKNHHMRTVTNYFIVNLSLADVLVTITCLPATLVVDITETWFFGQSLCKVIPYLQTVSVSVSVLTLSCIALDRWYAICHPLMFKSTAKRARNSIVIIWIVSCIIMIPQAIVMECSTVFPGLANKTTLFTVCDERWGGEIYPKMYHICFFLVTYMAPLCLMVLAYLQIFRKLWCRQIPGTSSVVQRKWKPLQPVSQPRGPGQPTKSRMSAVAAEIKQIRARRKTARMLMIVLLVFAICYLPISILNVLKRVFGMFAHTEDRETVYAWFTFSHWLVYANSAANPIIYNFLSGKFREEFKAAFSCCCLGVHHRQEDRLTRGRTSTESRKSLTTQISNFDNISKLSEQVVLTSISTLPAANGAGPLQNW
# Assay: Functional assay for in vitro evaluation of OX2 receptor agonist activity (aequorin light emission, increase in intracellular calcium)
# Type: cell-based
# Details: OX2R Agonism, Table 1; cell line co-expressing apoaequorin and OX2 receptor; related to the maximum effect induced by the orexin peptide
# Source text: The method of choice for the in vitro evaluation of OX2 receptor agonists is the measure of the increase in intracellular calcium induced by the activation of the receptor. OX2 receptor is stably expressed in a cell line co-expressing apoaequorin, a photoprotein which needs a hydrophobic prosthetic group, coelenterazine, to be converted to aequorin, the active enzyme. After calcium binding, aequorin oxidizes coelenterazine to coelenteramide with the production of CO2 and emission of light. The measurement of light emission after the addition of agonists reflects its ability to activate the receptor.
# Cell line co-expressing apoaequorin and OX2 receptor were cultured as a monolayer at 37°C and 5% CO2 in complete Ham's F12 medium supplemented with FBS 10%, penicillin (100 IU/ml)-streptomycin (100 µg/ml), Geneticin (G418, 400 µg/ml) and Zeocin (250 µg/ml). Before starting the experiment, cells were incubated with a medium without antibiotics for 18 hours. After this incubation, the cells were detached from the culture plates and they were resuspended in DMEM-F12/0.1% BSA at a final concentration of 5x10^6 cells/ml. Cells were then incubated with 5 µM of coelenterazine at room temperature on a vertical rotating wheel for at least 3 hours. Following incubation with coelenterazine cells were diluted 1:10 with DMEM-F12/0.1% BSA and incubated in magnetic agitation for 1 hour.
# Dose-response curves were performed for each compound. 50 µl of pre-loaded cells were injected over test compounds in a 96 wells plate. Results were expressed as the concentration of the compound where 50% of its maximal effect is observed (EC50), related to the maximum effect induced by the orexin peptide on the receptor. OX2R Agonism
row,EC50 [nM],SMILES
1,50,"Cc1ccc(OC2=C(Cl)C(=O)c3ccccc3C2=O)c(N)c1C [Example 7, 2-(2-amino-3,4-dimethylphenoxy)-3-chloronaphthalene-1,4-dione]"
2,60,"Cc1cc(C)c(N)c(OC2=C(Cl)C(=O)c3ccccc3C2=O)c1 [Example 4, 2-(2-amino-3,5-dimethylphenoxy)-3-chloronaphthalene-1,4-dione]"
3,110,"Cc1c(Cl)ccc(OC2=C(Cl)C(=O)c3ccccc3C2=O)c1N [Example 3, 2-(2-amino-4-chloro-3-methylphenoxy)-3-chloronaphthalene-1,4-dione]"
4,50,"COc1ccc(N)c(OC2=C(Cl)C(=O)c3ccccc3C2=O)c1Cl [Example 2, 2-(6-amino-2-chloro-3-methoxyphenoxy)-3-chloronaphthalene-1,4-dione]"
5,130,"Cc1cc(C)c(OC2=C(Cl)C(=O)c3ccccc3C2=O)c(N)c1C [Example 9, 2-(2-amino-3,4,6-trimethylphenoxy)-3-chloronaphthalene-1,4-dione]"
6,58,"Cc1cc(C)c(N)c(OC2=C(Cl)C(=O)c3ccccc3C2=O)c1C [Example 8, 2-(2-amino-3,5,6-trimethylphenoxy)-3-chloronaphthalene-1,4-dione]"
7,28,"COc1ccc(N)c(OC2=C(Cl)C(=O)c3ccccc3C2=O)c1C [Example 1, 2-(6-amino-3-methoxy-2-methylphenoxy)-3-chloronaphthalene-1,4-dione]"
8,80,"Cc1cc(Cl)cc(N)c1OC1=C(Cl)C(=O)c2ccccc2C1=O [Example 5, 2-(2-amino-4-chloro-6-methylphenoxy)-3-chloronaphthalene-1,4-dione]"

row,SMILES,EC50 [nM]
1,"Cc1cc(Br)cc(N)c1OC1=C(Cl)C(=O)c2ccccc2C1=O [Example 6, 2-(2-amino-4-bromo-6-methylphenoxy)-3-chloronaphthalene-1,4-dione]",90

# Same assay, conditions: OX2R Agonism, Table 2, comparative examples (compounds described in PCT/EP2014/062349); same experimental methodology
row,EC50 [nM],SMILES
1,700,Nc1cc(C(F)(F)F)ccc1OC1=C(Cl)C(=O)c2ccccc2C1=O [Example C8]
2,737,Nc1cc(Cl)ccc1OC1=C(Cl)C(=O)c2ccccc2C1=O [Example C3]
3,150,Cc1ccc(C)c(OC2=C(Cl)C(=O)c3ccccc3C2=O)c1N [Example C12]
4,390,Nc1cc(Cl)cc(Cl)c1OC1=C(Cl)C(=O)c2ccccc2C1=O [Example C11]
5,578,Nc1cc(F)ccc1OC1=C(Cl)C(=O)c2ccccc2C1=O [Example C5]
6,242,Cc1ccc(OC2=C(Cl)C(=O)c3ccccc3C2=O)c(N)c1 [Example C2]
7,4370,CC(=O)c1ccc(OC2=C(Cl)C(=O)c3ccccc3C2=O)c(N)c1 [Example C7]
8,4060,COC(=O)c1ccc(OC2=C(Cl)C(=O)c3ccccc3C2=O)c(N)c1 [Example C6]
9,516,Nc1ccccc1OC1=C(Cl)C(=O)c2ccccc2C1=O [Example C1]
10,670,Cc1cc(N)c(OC2=C(Cl)C(=O)c3ccccc3C2=O)cc1C [Example C10]
11,390,Nc1ccc(F)cc1OC1=C(Cl)C(=O)c2ccccc2C1=O [Example C9]
12,747,Nc1ccc(Cl)cc1OC1=C(Cl)C(=O)c2ccccc2C1=O [Example C4]
